Experimental data: the NIST ThermoML archive (doi:10.1016/j.fluid.2010.03.012)
± gives the expanded uncertainty stated by the source.

Test: osmotic coefficient (dimensionless); mn = molality of the nth substance listed, in mol/kg
Settings: 101 kPa, Liquid, isopiestic method

C1CN2CN3CCN(CN1C3)C2 [1,3,6,8-tetraazatricyclo[4.4.1.1(3,8)]dodecane] + O
Settings | osmotic coefficient
288.15 K, m1 = 0.2149 | 0.9605 ± 0.0017
288.15 K, m1 = 0.2154 | 0.9583 ± 0.0018
288.15 K, m1 = 0.3036 | 0.9533 ± 0.0019
288.15 K, m1 = 0.3041 | 0.9518 ± 0.002
288.15 K, m1 = 0.5049 | 0.9571 ± 0.0018
288.15 K, m1 = 0.5066 | 0.9563 ± 0.0019
288.15 K, m1 = 0.603 | 0.9824 ± 0.0013
288.15 K, m1 = 0.604 | 0.9816 ± 0.0013
288.15 K, m1 = 0.7629 | 1.016 ± 0.0013
288.15 K, m1 = 0.7638 | 1.015 ± 0.0013
288.15 K, m1 = 1.011 | 1.1
293.15 K, m1 = 0.2023 | 0.991 ± 0.0011
293.15 K, m1 = 0.2031 | 0.9887 ± 0.0011
293.15 K, m1 = 0.3454 | 0.9917 ± 0.0011
293.15 K, m1 = 0.3458 | 0.9907 ± 0.0011
293.15 K, m1 = 0.5003 | 0.993 ± 0.001
293.15 K, m1 = 0.5009 | 0.9919 ± 0.0011
293.15 K, m1 = 0.7613 | 1.035 ± 0.0016
293.15 K, m1 = 0.7629 | 1.033 ± 0.0016
293.15 K, m1 = 0.9099 | 1.056 ± 0.0023
293.15 K, m1 = 0.9108 | 1.055 ± 0.0022
293.15 K, m1 = 1.068 | 1.119 ± 0.0046
293.15 K, m1 = 1.069 | 1.118 ± 0.0046
298.15 K, m1 = 0.2201 | 1.014 ± 0.0011
298.15 K, m1 = 0.2205 | 1.012 ± 0.0011
298.15 K, m1 = 0.3086 | 1.017 ± 0.0012
298.15 K, m1 = 0.3087 | 1.016 ± 0.0012
298.15 K, m1 = 0.5052 | 1.028 ± 0.0014
298.15 K, m1 = 0.5055 | 1.027 ± 0.0014
298.15 K, m1 = 0.562 | 1.032 ± 0.0015
298.15 K, m1 = 0.5624 | 1.032 ± 0.0015
298.15 K, m1 = 0.7125 | 1.045 ± 0.0019
298.15 K, m1 = 0.9849 | 1.075 ± 0.003
298.15 K, m1 = 0.9867 | 1.073 ± 0.0029
303.15 K, m1 = 0.2074 | 0.972 ± 0.0014
303.15 K, m1 = 0.2079 | 0.9707 ± 0.0015
303.15 K, m1 = 0.3266 | 0.9871 ± 0.0011
303.15 K, m1 = 0.3271 | 0.9863 ± 0.0011
303.15 K, m1 = 0.5022 | 1.015 ± 0.0011
303.15 K, m1 = 0.5029 | 1.014 ± 0.0011
303.15 K, m1 = 0.6864 | 1.033 ± 0.0015
303.15 K, m1 = 0.6868 | 1.034 ± 0.0016
303.15 K, m1 = 0.7946 | 1.057 ± 0.0023
303.15 K, m1 = 0.7955 | 1.057 ± 0.0023
303.15 K, m1 = 1.028 | 1.103 ± 0.004
303.15 K, m1 = 1.029 | 1.102 ± 0.004
